Data on 22 substances can be found in patent US9273101B2, “Functionalized biomaterials for tissue regeneration” (Nanomed3D S.R.L., priority 2011, dated 2016).

“Also recorded” adds a separate entry of the source.

Experiment [1] deals with NSCs cultured in suspension. In words: Phage biopanning (Ph.D.-7 library) against NSCs in suspension. Particulars: after three rounds of biopanning; for %, eluted phage clones / Frequency, eluted phage clones: membrane bound phages (MP); for %, internalized phage clones / Frequency, internalized phage clones: internalized clones (IP). It counts as binding, murine. The method, then: (§1) Two days prior cell seeding murine NSCs were mechanically dissociated in order to seed the maximum percentage of stem cells.
(§2) The Ph.D.-7 phage library was used (New England Biolabs), composed of phage clones with random 7-mer peptides fused to the N-terminal of PIII, a minor coat protein of M13 phage.
(§3) Before biopanning experiments against NSCs in adhesion, the phage library was incubated in a Laminin-coated tissue culture dish in order to remove phages with affinity to the Laminin coated plastic surface (negative selection). Mouse Laminin (10 mL at 25 μg/ml concentration) (Roche) was incubated overnight at 37° C. 10^12 cfu of phages were incubated for one hour at 37° C. in pre-warmed Incubation Medium (DMEM supplemented with 0.1% BSA) in Laminin-coated plastic surfaces (setting for adhering NSCs) or plain plastic surfaces (setting for NSCs in suspension). Then incubation Medium and a total volume of five washes of Washing Buffer (DPBS supplemented with 1% BSA and 0.05% Tween-20) were collected and eluted phages were amplified as described in the standard protocol of New England Biolabs.
(§4) 10^12 cfu of the negatively selected phage library were diluted in 10 ml Incubation Medium and pipetted onto the adhering NSCs or NSCs in suspension.
(§5) After 1 hour of incubation at 37° C. cells were washed five times with pre-warmed Washing Buffer, cell membrane bound phages (MP) and internalized clones (IP) were recovered from independent duplicates of differentiating progenies by eluting and/or lysing the cells respectively. The cell surface was stripped by a 5 minutes incubation of 5 ml of Glycine Buffer (0.2 M Glycine-HCl supplemented with 1 mg/ml BSA (pH 2.2)) at RT. Eluted Phages were neutralized with 5 ml of 1 M Tris-HCl buffer (pH 8) and amplified.
(§6) Cells were then lysed with 9 ml of Lysing Buffer (0.1% TEA in PBS) for 5 minutes at RT. Internalized phages were neutralized with 1 ml of 1 M Tris-HCl buffer.
(§7) Neutralized phages were titered by infection of Escherichia coli to monitor the selection. Internalized and eluted phages were amplified separately for another round of selection. Three rounds of positive selection were performed. At round number two and three the biopannings of internalized and eluted phages were performed in different cell cultures (but with identical culture conditions) by collecting the phages of interest (i.e. internalized phages from libraries of internalized phages) and discarding the leftovers.
(§8) After the third round of biopanning, phage clones were randomly picked out from the titer plates and sequenced. Thirty phage plaques per each set of phages were randomly picked for sequencing. A small number of clones wasn't successfully sequenced. […] In the case of panning against NSC in suspension the highest consensus was for KLPGWSG (SEQ ID NO: 10) (47.36 for MP), GETRAPL (SEQ ID NO: 12) (14.28% for IP and 10.52% for MP) and HAIYPRH (SEQ ID NO: 11) (28.57% for IP and 5.26% for MP).

In experiment [2] the test system is murine NSCs in adhesion (Laminin coated dishes). Put plainly: Phage biopanning (Ph.D.-7 library) against adhering NSCs. It counts as binding. The following applies: for Frequency, eluted phage clones / Frequency, internalized phage clones: clones sequenced after three rounds of biopanning; for Frequency, eluted phage clones / %, eluted phage clones: cell membrane bound phages (MP); for %, eluted phage clones / %, internalized phage clones: consensus after three rounds of biopanning; for %, internalized phage clones / Frequency, internalized phage clones: internalized clones (IP). The method, then: as §1
NSCs, three million per plate, were seeded over Laminin coated 10 cm Petri dishes (Falcon). After an overnight incubation in 10 ml of βFGF supplemented (10 ng/ml) neural basal media, cells were washed with pre-warmed Incubation Medium.
as §2, §3, §4, §5, §6, §7, §8

Experiment [3] concerns murine NSCs. Put plainly: Imaging and cell proliferation assay (CellTiter 96 MTS) on assembled hydrogels, murine NSCs. The class given is cell-based. The following applies: 7 DIV. How it is done: (§9) In vitro tests were performed as previously described (8), in order to assess whether the biomaterials (assembled hydrogels) obtained with the SAPs of the present invention influenced NSCs adhesion, survival and/or differentiation. SAPeptides (30 μl for each well at a concentration of 10 mg/ml) were assembled into 96 multiwells two hours before cell. Cells (at a concentration of 2×10^4 cells/cm^2) were seeded on the top-surface of each assembled scaffold. Initially, cells were cultured with basal medium supplemented with βFGF (10 ng/ml), added to […]. At 3 days in vitro (DIV), βFGF medium was replaced with Leukemia Inhibitory Factor (LIF, Chemicon) (20 ng/ml) and Brain Derived Neurotrophic Factor (BDNF, Peprotech) (20 ng/ml). Fresh medium was added every three days. For both viability and differentiation assays positive and negative controls consisted of Cultrex-BME® substrate (R&D systems) (1:100 dilution in basal medium) and untreated bottom well surfaces respectively. Cell viability was quantified via CellTiter 96® Aqueous Proliferation Assay (Promega) at 7 DIV as recommended in the Promega protocol. After calibrating the linear response between the cell number and absorbance values, proliferated cell populations were quantified (n=5) by using a Vmax microplate reader (Molecular Devices) at 490 nm wavelength. Values, reported as means±standard error of the mean, were blanked to their respective controls consisting of same substrates and cell culture media without cells.

Experiment [4] concerns murine NSCs. Put plainly: Immunofluorescence of differentiated NSC progeny on SAP scaffolds, murine. The class given is cell-based. Particulars: scaffold stiffness 100, 500 and 1000 Pa. The method, then:
as §9
Immunofluorescence tests were performed for assaying the phenotypes of the differentiated human and murine NSC progenies. In the case of KLP and Ac-KLP just murine NSC have been used. Ac-KLP and KLP scaffolds were prepared at different concentrations in order to display three different stiffness values (viz. 100, 500 and 1000 Pa). This was done to assess the influence of scaffold concentration (and consequently its stiffness) over NSC differentiation. All the other peptides were tested at 1% v/w concentration instead. The following antibodies were used: rabbit polyclonal against GFAP (1:500, DakoCytomation) for astrocytes, mouse monoclonal against βIII-Tubulin (1:500, Covance) for neurons, mouse monoclonal against GalC (1:200, Chemicon) and O4 (1:200, Chemicon) for oligodendrocyes. Secondary Abs were Goat anti Mouse Alexa 488 (1:1000, Molecular Probes), Goat anti Mouse Cy3 (1:1000, Jackson Immunoresearch), Goat anti Rabbit Cy3 (1:1000, Jackson Immunoresearch). Cell nuclei were counterstained with DAPI (Molecular Probes). Quantitative analyses were performed by counting 100-300 cells for each of 9 randomly chosen fields over a total of 3 independent experiments. Phase contrast and fluorescence images of the adhering cells were acquired via Zeiss microscopes Axioplan 2 and ApoTome System at one week after seeding.

For the next experiment, the system named is human NSCs. Put plainly: Imaging and cell proliferation assay (CellTiter 96 MTS) on assembled hydrogels, human NSCs. It counts as cell-based. The following applies: 7 DIV, scaffolds 10 mg/ml, vs control, P<0.03. The method, then:
as §9

With “ALTPWAF (Prepared by synthesis) [heptapeptide domain found by phage biopanning against NSCs]”, in experiment [1], the “%, eluted phage clones” value is on record as 10.52% and the “Frequency, eluted phage clones” value was 2.

In the case of “FAQRVPP (Prepared by synthesis) [heptapeptide domain found by phage biopanning against NSCs]”, in experiment [2], the “Frequency, eluted phage clones” value came out at 15; the “%, eluted phage clones” value is recorded as 62.5%; the “%, internalized phage clones” value came out at 53.5%.

In the case of “GETRAPL (Prepared by synthesis) [heptapeptide domain found by phage biopanning against NSCs]”, in experiment [1], the “%, internalized phage clones” value was determined as 14.28%; the “Frequency, internalized phage clones” value is on record as 2; the “%, eluted phage clones” value stood at 10.52%; the “Frequency, eluted phage clones” value stood at 2.

As for “GKPMPPM (Prepared by synthesis) [heptapeptide domain found by phage biopanning against NSCs]”, in experiment [1], the “%, eluted phage clones” value is listed as 10.52% and the “Frequency, eluted phage clones” value was determined as 2.

With “HAIYPRH (Prepared by synthesis) [heptapeptide domain found by phage biopanning against NSCs]”, in experiment [1], the “%, internalized phage clones” value worked out at 28.57%; the “Frequency, internalized phage clones” value is given as 4; the “%, eluted phage clones” value came to 5.26%; the “Frequency, eluted phage clones” value came to 1.

Consider “KLPGWSG (Prepared by synthesis) [heptapeptide domain found by phage biopanning against NSCs]”, for which, in experiment [1], the “%, eluted phage clones” value came to 47.36% and the “Frequency, eluted phage clones” value came out at 9.

With “LQAIPRN (Prepared by synthesis) [heptapeptide domain found by phage biopanning against NSCs]”, in experiment [2], the “Frequency, internalized phage clones” value was 1 and the “%, internalized phage clones” value was determined as 3.5%.

In the case of LTTGSGS, in experiment [2], the “Frequency, eluted phage clones” value amounted to 1 and the “%, eluted phage clones” value is 4.2%.

As for “NH2-KLPGWSGGGGLDLKLDLKLDLK-CONH2 (H-KLPGWSGGGGLDLKLDLKLDLK-NH2)”, the “cell morphology, adhesion and spreading on assembled hydrogels” value in the experiment with murine NSCs [3] was “fostered NSCs adhesion and spreading similarly to FAQ”. In addition, in the experiment on murine NSCs [4], the “differentiated neurons (βIIITubulin positive cells) in correspondence of stiffness reductions” value was “significant increments”.

With “NH2-QHLPRDHGGGLDLKLDLKLDLK-CONH2 (H-QHLPRDHGGGLDLKLDLKLDLK-NH2)”, the “cell viability / proliferated cell population (MTS)” value in the experiment on murine NSCs [3] (scaffolds 10 mg/ml, vs control, P<0.005) is reported as “significantly fostered cell viability; also recorded: significantly favored”; in the experiment with human NSCs it was “significantly fostered cell viability; also recorded: significantly favored”.

Regarding “QHLPRDH (Prepared by synthesis) [heptapeptide domain found by phage biopanning against NSCs]”, in experiment [2], the “Frequency, eluted phage clones” value was found to be 2; the “Frequency, internalized phage clones” value is given as 4; the “%, eluted phage clones” value worked out at 8.3%; the “%, internalized phage clones” value came to 14.2%.

Take “SASHWQI (Prepared by synthesis) [heptapeptide domain found by phage biopanning against NSCs]”: in experiment [2], the “Frequency, internalized phage clones” value is 1 and the “%, internalized phage clones” value was found to be 3.5%.

On to “SILPYPY (Prepared by synthesis) [heptapeptide domain found by phage biopanning against NSCs]”, for which, in experiment [1], the “%, internalized phage clones” value was determined as 14.28% and the “Frequency, internalized phage clones” value is given as 2.

As to “SLPKLPP (Prepared by synthesis) [heptapeptide domain found by phage biopanning against NSCs]”, in experiment [2], the “Frequency, internalized phage clones” value came to 1 and the “%, internalized phage clones” value is reported as 3.5%.

For SSELVTH, in experiment [2], the “Frequency, eluted phage clones” value turned out to be 1 and the “%, eluted phage clones” value amounted to 4.2%.

As to “SSLSVND (Prepared by synthesis) [heptapeptide domain found by phage biopanning against NSCs]”, in experiment [2], the “Frequency, eluted phage clones” value worked out at 1; the “Frequency, internalized phage clones” value stood at 3; the “%, eluted phage clones” value is listed as 4.2%; the “%, internalized phage clones” value stood at 10.7%.

As for TAVNSDA, in experiment [2], the “Frequency, eluted phage clones” value worked out at 1 and the “%, eluted phage clones” value was 4.2%.

For the substance “TPLSSHS (Prepared by synthesis) [heptapeptide domain found by phage biopanning against NSCs]”, in experiment [2], the “Frequency, internalized phage clones” value is 1 and the “%, internalized phage clones” value is 3.5%.

Consider TPPFAAW, for which, in experiment [2], the “Frequency, eluted phage clones” value is 1 and the “%, eluted phage clones” value is recorded as 4.2%.

In the case of TTTPTTP, in experiment [2], the “Frequency, eluted phage clones” value came out at 1 and the “%, eluted phage clones” value amounted to 4.2%.

Turning to “YIIPMHD (Prepared by synthesis) [heptapeptide domain found by phage biopanning against NSCs]”, in experiment [2], the “Frequency, eluted phage clones” value came out at 1; the “Frequency, internalized phage clones” value was 1; the “%, eluted phage clones” value is listed as 4.2%; the “%, internalized phage clones” value stood at 3.5%.

As to “YRMPIWP (Prepared by synthesis) [heptapeptide domain found by phage biopanning against NSCs]”, in experiment [2], the “Frequency, internalized phage clones” value turned out to be 1 and the “%, internalized phage clones” value was 3.5%.
